A melting point compilation (Tetko et al.)

Conditions: a range is the spread between reports

melting point [°C] | SMILES
156 to 160 | CC(=O)Nc1ccc(C=O)cc1
92 to 94 | CCOC(=O)c1cc([N+](=O)[O-])cc([N+](=O)[O-])c1
241 to 242 | Cc1cc(C2(c3cc(C)c(O)c(Br)c3)OS(=O)(=O)c3ccccc32)cc(Br)c1O
116 to 117 | CCOC(=O)c1ccc(O)cc1
146 to 148 | CC(=O)Nc1cccc(O)c1
-46 to -44 | CCCCCCCCI
181 to 182 | NC(=O)c1cccs1
-106 | CCSC
53 to 58 | Oc1ccc2c(c1)CCC2
-5 to -2.5 | O=C(Cl)CCCCCCCCC(=O)Cl
41 to 44 | O=C(OCc1ccccc1)c1ccccc1C(=O)OCc1ccccc1
-24 to -23.6 | CCC(C)(O)CC
15 to 17 | CC(C)(C)c1ccc(N)cc1
28 to 30.5 | Clc1sc(Cl)c(Cl)c1Cl
37 to 38 | O=C(c1ccccc1)c1c(F)c(F)c(F)c(F)c1F
53 to 53.5 | CCOC(=O)NCCOc1ccc(Oc2ccccc2)cc1
-68 to -67.9 | CCc1ccccc1Br
221 to 222 | CC1=NNC(=O)C1
70 to 73 | OCc1ccccc1Cl
65 to 66 | CCOC=C(C#N)C#N
-7 to -2 | O=C(Cl)CCc1ccccc1
48 to 49 | CCOC(N)=O
-115 | CC(C)CC1CCCC1
58.5 to 59.5 | COC1=C(OC)C(=O)C(C)=CC1=O

melting point [°C] | SMILES
54 to 55 | CN(C)c1ccc(Br)cc1
179 to 181 | O=C1c2c(O)cccc2Cc2cccc(O)c21
130 to 131 | CC1=CCC(C(C)(C)O)CC1O (configuration not stated)
30 to 34 | OC/C=C/c1ccccc1
-17.9 to -15 | CCCCCCCCCC#N
110 to 111 | CC(=O)Nc1ccccc1C
-8 to -7.6 | NCc1ccncc1
64 to 66 | CCCCNC(=S)NCCCC
163 to 164 | O=C(Nc1ccccc1)c1ccccc1
82 to 82.5 | O=C1c2ccccc2C(=O)N1CCBr
-51.9 to -51 | O=C1CCCC1
24 to 25.6 | NCCN1CCOCC1
43 to 44 | CC(C)(O)C(C)(C)O
83 to 84 | COc1ccc2ccccc2c1C=O
34 to 35 | COc1cc(Cl)cc(OC)c1
-116 to -115 | C=COCC
-83 to -82.7 | CCc1ccccc1Cl
-62.8 to -62 | Cc1ccc(C)o1
173 to 176 | O=[N+]([O-])c1ccc(I)cc1
-92 to -91.5 | CCCCOC(=O)CCC
-168 | C=CC(C)C
-21 to -16 | CCCCCCC(C)=O
96 to 98 | NCCS
-91 to -90.6 | C1CCC1

melting point [°C] | SMILES
12 to 12.5 | Cc1ccc(CN)cc1
-7.4 to -6 | FC(F)(F)c1ccccc1Cl
141 to 144 | NC(=O)NO
-52 to -50.9 | O=C1CCC1
50 to 53 | COc1ccc(I)cc1
148 to 149 | NC(=O)NCc1ccccc1
79 to 83 | O=Cc1c(O)ccc2ccccc12
-140 | C=CCCCC
36 to 37.5 | CCOc1ccc2ccccc2c1
163 to 166 | COc1ccc2nc(N)sc2c1
-44 to -43.5 | OCC(F)(F)F
30 to 33 | O=C1c2ccccc2CCc2ccccc21
66 to 67 | O=C1C(Cl)=CC(=NCl)C=C1Cl
18 to 21 | O=C(OCc1ccccc1)c1ccccc1
-74.1 to -74 | CCc1cc(C)cc(CC)c1
111 to 112 | C1CSCCS1
-57 to -55.5 | CCCCC(C)=O
-54 to -53.7 | CCc1cc(C)ccc1C
134 to 138 | CCOc1ccc(NC(C)=O)cc1
118 to 119 | O=C(O)Cc1cccc([N+](=O)[O-])c1
104 to 105 | O=C(O)COc1ccc(F)cc1
-124 | CCCC(C)(C)C
43.5 to 48 | CC12CCC(C1)C(C)(C)C2O (configuration not stated)
84 to 88 | COc1cc(Cl)c(Cl)c(Cl)c1Cl

melting point [°C] | SMILES
187 to 189 | CC1(C(=O)O)CCC(C(=O)O)C1(C)C (configuration not stated)
-85 to -84.7 | COC(=O)C(C)C
35 to 39 | O=C(C=Cc1ccccc1)OCc1ccccc1
2 to 3 | COc1ccccc1Br
-2 to -1.7 | CCCCCCCCCCC1CCCCC1
67 to 67.8 | CC#CC#CC
105 to 106 | SC(c1ccccc1)(c1ccccc1)c1ccccc1
64 to 67 | CCCCP(=O)(CCCC)CCCC
257 to 258 | NS(=O)(=O)c1cc(C(=O)O)ccc1Cl
109 to 111 | CC(=O)C1C(=O)C=C(C)OC1=O (configuration not stated)
-53 to -52.5 | C=Cc1ccccc1Br
252 to 253 | COc1ccc(C(=O)O)cc1O
72 to 74 | c1ccc(-c2cnc(-c3ccccc3)o2)cc1
93 to 94 | N#Cc1ccc2c(c1)OCO2
17 to 18 | CCCCCCCCCCCCCCCCBr
70 to 71.5 | CCN(CC)C(=S)SSC(=S)N(CC)CC
-67 to -66.9 | CCc1ccc(C)c(C)c1
152 to 153 | O=C(O)CCCCC(=O)O
-48.2 to -48 | CCCCCCCI
10.5 to 11 | BrCC(Br)(Br)CBr
123 to 125 | Nc1cccc(O)c1
36 to 38 | C=C(CC(=O)OC)C(=O)OC
66 to 67 | N#CCC(=O)O
24 to 26 | CCCCCCCCCCCCO

melting point [°C] | SMILES
-66.1 to -66 | CCCCCCC(=O)OCC
-97 to -96.5 | CC[Si](Cl)(Cl)CC
11 to 12.4 | CCOc1cccc(OCC)c1
159 | c1ccc2c(c1)Sc1ccccc1S2
-70 to -66.7 | Cc1ccccn1
-30 to -29.7 | CCCCCCCCCC
158 to 159 | CN(C)C(=O)Nc1ccc(Cl)c(Cl)c1
94.5 to 97 | COc1ccc(C(=O)OC(=O)c2ccc(OC)cc2)cc1
-14 to -10 | CC(C)C(C)(C)O
-98 to -97.5 | CO
65.8 to 67 | CCCCCCCCCCCCCCCCCCCCCCCCCCCCCC
-7 to -6.5 | OCc1cccnc1
173 to 178 | CC12CCC3c4ccc(O)cc4CCC3C1CCC2O (configuration not stated)
74 to 76 | Cc1ccc(C)c(O)c1
116 to 118 | Nc1ccc2ccc3cccc4ccc1c2c34
94.5 to 95 | CC(=O)c1ccc(Br)s1
193 to 197 | O=C(O)C(S)C(S)C(=O)O (configuration not stated)
97 to 98.5 | CCc1ccc(O)cc1O
57 to 62 | Oc1ccc2c(c1)CCCC2
100 to 101 | O=Cc1cc(Cl)ccc1O
107 to 108 | Cc1cc(C)[nH]n1
46 to 48.5 | O=Cc1ccc(Cl)cc1
-64 to -63.7 | Cc1cccc(C(C)C)c1
-105 | C#CCC(C)C

melting point [°C] | SMILES
43.5 to 44 | CCOC(=O)c1ccc(OC)c(OC)c1
180 to 181 | Oc1c(Cl)cc(Cl)c2cccnc12
228 to 230 | COc1ccc(C2CC(=O)c3c(O)cc(O)cc3O2)cc1O (configuration not stated)
-5 to -4.8 | C1COCCN1
28 to 29.5 | Cc1ccc(C#N)cc1
65 to 66 | COc1cc(CNC(=O)CCCCC=CC(C)C)ccc1O
-129 to -128 | CC(C)C(C)C
169 to 171 | O=C(O)c1ccc(O)c(Cl)c1
119 to 120 | O=c1c(-c2ccccc2)c1-c1ccccc1
-98 to -93 | CCCC(=O)OCC
166 to 167 | O=C[C@H](O)[C@@H](O)[C@@H](O)[C@H](O)CO
70 to 71.5 | Cc1ccc(OC(=O)c2ccccc2)cc1
71 to 76 | CC(=O)c1cc2ccccc2o1
148 to 150 | O=C(O)c1cccc(Oc2ccccc2)c1
130 to 135 | O=C(O)Cc1cccc2ccccc12
-2 to -1.5 | Cc1ccc2ccccc2n1
-106 to -105 | C/C=C/C
-134 | CC=C(C)C
-128 to -127 | CCCOCC
-100 to -99 | COC=O
-141 | C/C=C\CCC
56 to 57 | O=C(c1ccccc1)c1cccs1
37 to 40 | O=C1CCCCC1=O
65 to 68 | Cc1cccc(O)c1O

SMILES | melting point [°C]
COc1cc(-c2ccc(N)c(OC)c2)ccc1N | 136 to 137
Clc1ccc(-c2ccccc2)cc1 | 78 to 78.8
N#Cc1ccccn1 | 27 to 29
N#Cc1ccc([N+](=O)[O-])cc1 | 145 to 149
O=C(Cl)c1ccc(Cl)cc1 | 12 to 16
CCI | -111 to -108
CCN=c1nc(Cl)[nH]c(=NC(C)C)[nH]1 | 172 to 177
CCC(C)(C)O | -12 to -8
CCOc1ccc(N)cc1 | 2.4 to 4
CCCCCCCCC#N | -34.2 to -34
CCOS(=O)(=O)c1ccc(C)cc1 | 32 to 34.5
Cc1ccc(N)cc1C | 50 to 51
Nn1cnnc1 | 82.5 to 86
CC(=O)Nc1ccc2c(c1)Cc1ccccc1-2 | 193 to 194
Oc1c(Cl)ccc(Cl)c1Cl | 56 to 58
ClCc1cccc(CCl)c1 | 34.2 to 36
Cc1ccc(N=C=S)cc1 | 25 to 25.5

SMILES | melting point [°C]
O=[N+]([O-])c1ccc(F)c([N+](=O)[O-])c1 | 25.8 to 27
ClC(Cl)C(Cl)Cl | -44 to -43
C=CCCl | -135 to -134
CC(Cl)(Cl)Cl | -33 to -30
O=C=S | -139
OCCOc1ccccc1 | 12 to 14
O=[N+]([O-])c1ccc(Cl)c(Cl)c1 | 39 to 43
ClC(Cl)(Cl)Br | -6 to -5.7
Oc1c(Cl)cccc1Cl | 65 to 68.5
O=Cc1ccc(-c2ccccc2)cc1 | 59 to 60
N#Cc1cccc([N+](=O)[O-])c1 | 116 to 117
O=C(O)c1ccc(CBr)cc1 | 225 to 230
NC(=O)C(Cl)Cl | 99 to 99.4
CC(=O)NBr | 104
COc1ccc(C=O)cc1OC | 43 to 44
O=C(O)c1cc(Cl)c(O)c(Cl)c1 | 265 to 268
